Test results published in patent US11407736B2 (priority 2019, dated 2022).
Structures can show the parent of a compound that is named as a salt. Where two headings read alike, the source gives them in different places. Each block holds one molecule with its values, some of them ahead of it.

Key:
[1] = test system: L929 cells; assay: L929 cell necroptosis assay (TNFa + zVAD, CellTiter-Glo); format: cell-based, murine; settings: Mus musculus
Summary of the method: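 Necroptosis was read as CellTiter-Glo luminescence 18 hours after TNFa stimulation at 37° C, 5% CO2. Prior to that, L929 cells (10K/well, plated 18 h) received fresh medium with 40 uM zVAD-fmk plus 4-fold serially diluted compound.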

[2] = test system: U937 cells; assay: U937 cell necroptosis assay (TNFa + zVAD, CellTiter-Glo); format: cell-based, human; settings: Homo sapiens
Summary of the method: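 Necroptosis was induced with TNFa at 2 ng/mL final for 18 h at 37 °C, following 1 h compound pre-incubation in the presence of zVAD-fmk (60 uM for U937 plating medium, 40 uM for L929 medium). Luminescent CellTiter-Glo signal gave relative cell survival.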

[3] = biological target: RIPK1 (Homo sapiens (Human), UniProt Q13546); assay: RIPK1 ADP-Glo biochemical kinase assay
RIPK1, sequence (Q13546 whole entry, species assumed): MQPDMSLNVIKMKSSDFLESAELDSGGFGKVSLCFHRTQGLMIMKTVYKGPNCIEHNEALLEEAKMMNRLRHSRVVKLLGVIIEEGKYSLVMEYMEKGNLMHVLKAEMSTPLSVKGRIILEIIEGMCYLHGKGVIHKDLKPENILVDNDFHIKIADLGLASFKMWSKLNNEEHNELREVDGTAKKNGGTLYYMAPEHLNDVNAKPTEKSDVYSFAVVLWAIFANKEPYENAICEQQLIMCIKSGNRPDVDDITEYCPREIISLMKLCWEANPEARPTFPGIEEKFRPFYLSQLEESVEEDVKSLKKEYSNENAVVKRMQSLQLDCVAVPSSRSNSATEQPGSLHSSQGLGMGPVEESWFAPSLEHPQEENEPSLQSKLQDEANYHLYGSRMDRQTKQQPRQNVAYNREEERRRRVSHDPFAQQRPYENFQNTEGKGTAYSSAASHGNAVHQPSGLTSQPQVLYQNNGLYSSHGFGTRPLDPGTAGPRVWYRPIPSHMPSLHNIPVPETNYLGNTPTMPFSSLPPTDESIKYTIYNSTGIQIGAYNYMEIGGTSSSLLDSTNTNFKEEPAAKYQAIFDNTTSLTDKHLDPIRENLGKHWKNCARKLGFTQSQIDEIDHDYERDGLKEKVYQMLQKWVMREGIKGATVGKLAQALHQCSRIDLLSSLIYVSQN
Description: The final reaction volume was 5.0ul.
Adding 5 μl of ADP-Glo™ terminated the reaction.

[4] = L929, L929 cells, TNFa + zVAD, read-out: L929-CTG-recovery, L929, TNFa + zVAD (IC50)
[5] = U-937, U937 cells, TNFa + zVAD, read-out: U937 Zvad TNF CTG Recovery, U937, TNFa + zVAD (IC50)
[6] = read-out: RIPK1 ADP-Glo Kinase (IC50)
[7] = L929, read-out: L929-CTG-recovery, L929, TNFa + zVAD (IC50), L929 cells, TNFa + zVAD
[8] = U-937, read-out: U937 Zvad TNF CTG Recovery, U937, TNFa + zVAD (IC50), U937 cells, TNFa + zVAD

IC50 [3, 6]: 0.0321 µM
SMILES: CN1C(=O)[C@@H](NC(=O)n2cc(Cc3ccccc3)cn2)COc2ccc(C#Cc3ccccn3)cc21 [Compound I-215, (S)-4-Benzyl-N-(5-methyl-4-oxo-7-(pyridin-2-ylethynyl)-2,3,4,5-tetrahydrobenzo[b][1,4]oxazepin-3-yl)-1H-pyrazole-1-carboxamide]
IC50 [1, 4]: 0.0209 µM
IC50 [2, 5]: 0.0003 µM

SMILES: CN1C(=O)[C@@H](NC(=O)n2cc(Cc3ccccc3)cn2)COc2ccc(C#CC3(O)COC3)cc21 [Compound I-216, (S)-4-Benzyl-N-(7-((3-hydroxyoxetan-3-yl)ethynyl)-5-methyl-4-oxo-2,3,4,5-tetrahydrobenzo[b][1,4]oxazepin-3-yl)-1H-pyrazole-1-carboxamide]
IC50 [1, 7]: 0.0285 µM
IC50 [2, 8]: 0.0005 µM
IC50 [3, 6]: 0.0188 µM

SMILES: CN1C(=O)[C@@H](NC(=O)n2cc(Cc3ccccc3)cn2)COc2ccc(N3CC4(CCOCC4)C3)cc21 [Compound I-217, (S)-4-Benzyl-N-(5-methyl-4-oxo-7-(7-oxa-2-azaspiro[3.5]nonan-2-yl)-2,3,4,5-tetrahydrobenzo[b][1,4]oxazepin-3-yl)-1H-pyrazole-1-carboxamide]
IC50 [1, 4]: 0.597 µM
IC50 [2, 5]: 0.0005 µM
IC50 [3]: 0.0239 µM

IC50 [3, 6]: 0.0245 µM
SMILES: CN1C(=O)[C@@H](NC(=O)n2cc(Cc3ccc(F)cc3)cn2)COc2ccc(C#CC(C)(C)O)cc21 [Compound I-218, (S)-4-(4-fluorobenzyl)-N-(7-(3-hydroxy-3-methylbut-1-yn-1-yl)-5-methyl-4-oxo-2,3,4,5-tetrahydrobenzo[b][1,4]oxazepin-3-yl)-1H-pyrazole-1-carboxamide]
IC50 [1, 4]: 0.0758 µM
IC50 [2, 5]: 0.0026 µM

IC50 [3, 6]: 0.0284 µM
SMILES: CN1C(=O)[C@@H](NC(=O)n2cc(Cc3ccccc3)cn2)COc2ccc(C#CC3(O)CCC3)cc21 [Compound I-219, (S)-4-Benzyl-N-(7-((1-hydroxycyclobutyl)ethynyl)-5-methyl-4-oxo-2,3,4,5-tetrahydrobenzo[b][1,4]oxazepin-3-yl)-1H-pyrazole-1-carboxamide]
IC50 [1, 4]: 0.0236 µM
IC50 [2, 5]: 0.0006 µM

IC50 [3, 6]: 0.0355 µM
SMILES: Cc1c(Cc2ccccc2)cnn1C(=O)N[C@H]1COc2ccc(C#CC(C)(C)O)cc2N(C)C1=O [Compound I-220, (S)-4-Benzyl-N-(7-(3-hydroxy-3-methylbut-1-yn-1-yl)-5-methyl-4-oxo-2,3,4,5-tetrahydrobenzo[b][1,4]oxazepin-3-yl)-5-methyl-1H-pyrazole-1-carboxamide]
IC50 [1, 4]: 1.92 µM
IC50 [2, 5]: 0.0089 µM

IC50 [3, 6]: 0.0397 µM
SMILES: CN1C(=O)[C@@H](NC(=O)n2cc(Cc3ccc(F)cc3)cn2)COc2ccc(C#CC3(O)CCC3)cc21 [Compound I-221, (S)-4-(4-Fluorobenzyl)-N-(7-((l-hydroxycyclobutyl)ethynyl)-5-methyl-4-oxo-2,3,4,5-tetrahydrobenzo[b][1,4]oxazepin-3-yl)-1H-pyrazole-1-carboxamide]
IC50 [1, 4]: 0.0722 µM
IC50 [2, 5]: 0.0025 µM

IC50 [3, 6]: 0.0166 µM
SMILES: CN1C(=O)[C@@H](NC(=O)n2cc(Cc3ccc(F)cc3)cn2)COc2ccc(C#CC3(O)COC3)cc21 [Compound I-222, (S)-4-(4-Fluorobenzyl)-N-(7-((3-hydroxyoxetan-3-yl)ethynyl)-5-methyl-4-oxo-2,3,4,5-tetrahydrobenzo[b][1,4]oxazepin-3-yl)-1H-pyrazole-1-carboxamide]
IC50 [1, 4]: 0.0625 µM
IC50 [2, 5]: 0.0014 µM

IC50 [3, 6]: 0.141 µM
SMILES: CN1C(=O)[C@@H](NC(=O)n2ccc(Cc3ccc(F)cc3)n2)COc2ccc(C#CC3(O)CCC3)cc21 [Compound I-223, (S)-3-(4-Fluorobenzyl)-N-(7-((1-hydroxycyclobutyl)ethynyl)-5-methyl-4-oxo-2,3,4,5-tetrahydrobenzo[b][1,4]oxazepin-3-yl)-1H-pyrazole-1-carboxamide]
IC50 [1, 4]: 10.3 µM
IC50 [2, 5]: 0.627 µM

IC50 [3, 6]: 0.312 µM
SMILES: CN1C(=O)[C@@H](NC(=O)n2cc(Cc3ccc(F)cc3)cn2)COc2ccc(C#CC3(O)CC4(CCC4)C3)cc21 [Compound I-224, (S)-4-(4-Fluorobenzyl)-N-(7-((2-hydroxyspiro[3.3]heptan-2-yl)ethynyl)-5-methyl-4-oxo-2,3,4,5-tetrahydrobenzo[b][1,4]oxazepin-3-yl)-1H-pyrazole-1-carboxamide]
IC50 [1, 4]: 0.22 µM
IC50 [2, 5]: 0.0015 µM

IC50 [3, 6]: 0.0227 µM
SMILES: CN1C(=O)[C@@H](NC(=O)n2cc(Cc3ccc(F)cc3)cn2)COc2ccc(C#CC3(O)CC4(COC4)C3)cc21 [Compound I-225, (S)-4-(4-Fluorobenzyl)-N-(7-((6-hydroxy-2-oxaspiro[3.3]heptan-6-yl)ethynyl)-5-methyl-4-oxo-2,3,4,5-tetrahydrobenzo[b][1,4]oxazepin-3-yl)-1H-pyrazole-1-carboxamide]
IC50 [1, 4]: 0.0325 µM
IC50 [2, 5]: 0.0005 µM

IC50 [3, 6]: 0.033 µM
SMILES: CN1C(=O)[C@@H](NC(=O)n2cc(Cc3ccc(F)cc3)cn2)COc2ccc(C#CC(C)(C)N)cc21 [Compound I-226, (S)—N-(7-(3-amino-3-methylbut-1-yn-1-yl)-5-methyl-4-oxo-2,3,4,5-tetrahydrobenzo[b][1,4]oxazepin-3-yl)-4-(4-fluorobenzyl)-1H-pyrazole-1-carboxamide]
IC50 [1, 4]: 1.77 µM
IC50 [2, 5]: 0.017 µM

SMILES: CN1C(=O)[C@@H](NC(=O)c2nnc(C3(c4ccccc4)CC3)o2)COc2ccc(N3CC4(CCOCC4)C3)cc21 [Compound I-235, (S)—N-(5-methyl-4-oxo-7-(7-oxa-2-azaspiro[3.5]nonan-2-yl)-2,3,4,5-tetrahydrobenzo[b][1,4]oxazepin-3-yl)-5-(1-phenylcyclopropyl)-1,3,4-oxadiazole-2-carboxamide]
IC50 ([1]; L929 cells, TNFa + zVAD, read-out: L929-CTG-recovery, L929, TNFa + zVAD (IC50)): 1.07 µM
IC50 [2, 5]: 0.0132 µM
IC50 [3, 6]: 0.0621 µM

SMILES: CN1C(=O)[C@@H](NC(=O)c2nnc(Cc3ccccc3)o2)COc2ccc(N3CC4(CCOCC4)C3)cc21 [Compound I-236, (S)-5-benzyl-N-(5-methyl-4-oxo-7-(7-oxa-2-azaspiro[3.5]nonan-2-yl)-2,3,4,5-tetrahydrobenzo[b][1,4]oxazepin-3-yl)-1,3,4-oxadiazole-2-carboxamide]
IC50 [1, 7]: 0.258 µM
IC50 [2, 8]: 0.0066 µM
IC50 [3, 6]: 0.0559 µM

SMILES: CN1C(=O)[C@@H](NC(=O)n2cc(Cc3ccc(F)cc3F)cn2)COc2ccc(Br)cc21 [Compound I-237, (S)—N-(7-Bromo-5-methyl-4-oxo-2,3,4,5-tetrahydrobenzo[b][1,4]oxazepin-3-yl)-4-(2,4-difluorobenzyl)-1H-pyrazole-1-carboxamide]
IC50 [1, 4]: 15.5 µM
IC50 [2, 5]: 0.135 µM
IC50 [3]: 0.0431 µM

SMILES: CN1C(=O)[C@@H](NC(=O)n2cc(Cc3ccc(F)cc3F)cn2)COc2ccc(C#CC(C)(C)CNC(=O)OC(C)(C)C)cc21 [Compound I-240, Tert-butyl (S)-(4-(3-(4-(2,4-difluorobenzyl)-1H-pyrazole-1-carboxamido)-5-methyl-4-oxo-2,3,4,5-tetrahydrobenzo[b][1,4]oxazepin-7-yl)-2,2-dimethylbut-3-yn-1-yl)carbamate]
IC50 [1, 4]: 0.944 µM
IC50 [2, 5]: 0.0151 µM
IC50 [3]: 0.265 µM

SMILES: CN1C(=O)[C@@H](NC(=O)n2cc(Cc3ccc(F)cc3F)cn2)COc2ccc(C#CC(C)(C)CN)cc21 [Compound I-241, (S)—N-(7-(4-Amino-3,3-dimethylbut-1-yn-1-yl)-5-methyl-4-oxo-2,3,4,5-tetrahydrobenzo[b][1,4]oxazepin-3-yl)-4-(2,4-difluorobenzyl)-1H-pyrazole-1-carboxamide hydrochloride]
IC50 [1, 4]: 2.1 µM
IC50 [2, 5]: 0.0626 µM
IC50 [3]: 0.0501 µM

IC50 [3, 6]: 0.0452 µM
SMILES: CN1C(=O)[C@@H](NC(=O)c2cc(Oc3ccccc3)ccn2)COc2cc(C#Cc3ccccn3)ccc21 [II-16, (S)—N-(5-methyl-4-oxo-8-(pyridin-2-ylethynyl)-2,3,4,5-tetrahydrobenzo[b][1,4]oxazepin-3-yl)-4-phenoxypicolinamide]
IC50 [1, 4]: 2.12 µM
IC50 [2, 5]: 0.0034 µM

IC50 [3, 6]: 0.0518 µM
SMILES: CN1C(=O)[C@@H](NC(=O)c2cc(Oc3ccc(C#N)cc3)ccn2)COc2ccc(C#CC(C)(C)O)cc21 [II-18, (S)-4-(4-cyanophenoxy)-N-(7-(3-hydroxy-3-methylbut-1-yn-1-yl)-5-methyl-4-oxo-2,3,4,5-tetrahydrobenzo[b][1,4]oxazepin-3-yl)picolinamide]
IC50 [1, 4]: 6.64 µM
IC50 [2, 5]: 0.286 µM

SMILES: CN1C(=O)[C@@H](NC(=O)c2cc(Oc3ccc(C#N)cc3)ccn2)COc2ccc(C#CC3(O)COC3)cc21 [II-19, (S)-4-(4-cyanophenoxy)-N-(7-((3-hydroxyoxetan-3-yl)ethynyl)-5-methyl-4-oxo-2,3,4,5-tetrahydrobenzo[b][1,4]oxazepin-3-yl)picolinamide]
IC50 [1, 7]: 2.89 µM
IC50 [2, 8]: 0.0555 µM
IC50 [3, 6]: 0.0349 µM

SMILES: CN1C(=O)[C@@H](NC(=O)c2cc(-c3ccccc3)ccn2)COc2ccc(C#CC(C)(C)O)cc21 [II-20, (S)—N-(7-(3-hydroxy-3-methylbut-1-yn-1-yl)-5-methyl-4-oxo-2,3,4,5-tetrahydrobenzo[b][1,4]oxazepin-3-yl)-4-phenylpicolinamide]
IC50 [1, 7]: 14.6 µM
IC50 [2, 8]: 0.0316 µM
IC50 [3, 6]: 0.0403 µM
